Values joined by “and” are separate entries in the source; they are usually repeats but may differ in a detail not shown here. Equal values may be shown once. Read-outs that look alike come from different tables or passages of the source.
How the values were obtained:
VEGFR-2 = VEGFR-2 (Homo sapiens, UniProt P35968); assay: In vitro protein kinase inhibition assay (ELISA kit), VEGFR-2; conditions: individual Data 1-3
CDK2 = CDK2 (Homo sapiens, UniProt P24941); assay: In vitro protein kinase inhibition assay (ELISA kit), CDK2
HER2 = HER2 (Homo sapiens, UniProt P04626); assay: In vitro protein kinase inhibition assay (ELISA kit), HER2
MCF-7 [1] = assay: In vitro anti-estrogenic activity assay, MCF-7
[2] = target: T1, aromatase (CYP19A, EC 1.14.14.14) (Homo sapiens, UniProt P11511); assay: biochemical; conditions: individual Data 1-3
T1 construct: Microsomal samples were isolated from tissue using the Microsome Isolation Kit; tissue BioVision K983-100; host or cells: microsomes from an unnamed tissue
T1 sequence (P11511 1-503): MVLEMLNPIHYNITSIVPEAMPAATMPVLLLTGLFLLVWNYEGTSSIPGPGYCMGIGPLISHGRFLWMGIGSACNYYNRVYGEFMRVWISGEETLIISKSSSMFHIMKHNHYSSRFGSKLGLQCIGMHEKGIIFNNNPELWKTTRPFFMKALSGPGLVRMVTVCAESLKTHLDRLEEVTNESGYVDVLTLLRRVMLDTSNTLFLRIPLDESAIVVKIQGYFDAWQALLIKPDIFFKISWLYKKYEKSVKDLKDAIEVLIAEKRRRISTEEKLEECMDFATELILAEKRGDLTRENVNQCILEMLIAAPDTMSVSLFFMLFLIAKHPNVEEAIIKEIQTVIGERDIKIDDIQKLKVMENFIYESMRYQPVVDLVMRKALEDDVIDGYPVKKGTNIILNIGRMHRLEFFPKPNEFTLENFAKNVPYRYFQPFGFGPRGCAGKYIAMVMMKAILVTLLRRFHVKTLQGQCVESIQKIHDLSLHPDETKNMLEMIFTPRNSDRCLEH
Procedure: In vitro aromatase assay was performed using the BioVision Aromatase Activity Assay Kit (Catalog # K983-100; BioVision, Milpitas, CA, USA). Microsomal samples were isolated from tissue using the Microsome Isolation Kit (Cat. #K249; BioVision, Milpitas, CA, USA). A standard curve was established by diluting the Fluorescence Standard provided in the kit to create a 0.5 pmole/µL solution, followed by setting up a series of standards in a white 96-well plate, adjusting the total volume to 100 µL with aromatase assay buffer. For each reaction well, a 2X concentrated mix was prepared by adding 2–48 µL of the microsomal sample and 2 µL of the NADPH generating system, bringing the final volume to 50 µL with aromatase assay buffer. Background controls (no enzyme) and positive controls (with recombinant aromatase) were included. […] After a 10 min incubation at 37 °C, 30 µL of the substrate/NADP+ mixture was added to each well, and fluorescence was measured immediately in kinetic mode for 60 min at 37 °C. Finally, the change in fluorescence was calculated to determine the specific activity of aromatase using the formula provided in the kit protocol.

HeLa = assay: MTT cytotoxicity assay, HeLa; assay type: cell-based; conditions: Homo sapiens, 24 h treatment, mean ± SD of triplicate
Procedure: (§1) Subsequently, 100 µL of dimethyl sulfoxide was introduced to dissolve the insoluble formazan.

[3] = test system: HCT-116, MDA-MB-231, HeLa, and MCF-7; assay: MTT cytotoxicity assay, ranges stated over several cell lines; assay type: cell-based; conditions: Homo sapiens
Procedure: as §1

HCT-116 = assay: MTT cytotoxicity assay, HCT-116; assay type: cell-based; conditions: Homo sapiens, 24 h treatment, mean ± SD of triplicate
Procedure: as §1

MCF-7a = assay: In vitro anti-estrogenic activity assay, MCF-7a
MDA-MB-231 = assay: MTT cytotoxicity assay, MDA-MB-231; assay type: cell-based; conditions: Homo sapiens, 24 h treatment, mean ± SD of triplicate
Procedure: as §1

[4] = MTT cytotoxicity assay, normal cell line WI-38; assay type: cell-based, human; conditions: human, WI-38 cells (normal human lung fibroblasts), normal (non-cancer) cell line, 24 h treatment
Procedure: as §1

MCF-7 [5] = assay: MTT cytotoxicity assay, MCF-7; assay type: cell-based, human; conditions: Homo sapiens, MCF7, 24 h, 24 h treatment, mean ± SD of triplicate
Procedure: as §1

[6] = cell count relative to the control (17β-E2)

HER2, sequence (P04626 23-1255): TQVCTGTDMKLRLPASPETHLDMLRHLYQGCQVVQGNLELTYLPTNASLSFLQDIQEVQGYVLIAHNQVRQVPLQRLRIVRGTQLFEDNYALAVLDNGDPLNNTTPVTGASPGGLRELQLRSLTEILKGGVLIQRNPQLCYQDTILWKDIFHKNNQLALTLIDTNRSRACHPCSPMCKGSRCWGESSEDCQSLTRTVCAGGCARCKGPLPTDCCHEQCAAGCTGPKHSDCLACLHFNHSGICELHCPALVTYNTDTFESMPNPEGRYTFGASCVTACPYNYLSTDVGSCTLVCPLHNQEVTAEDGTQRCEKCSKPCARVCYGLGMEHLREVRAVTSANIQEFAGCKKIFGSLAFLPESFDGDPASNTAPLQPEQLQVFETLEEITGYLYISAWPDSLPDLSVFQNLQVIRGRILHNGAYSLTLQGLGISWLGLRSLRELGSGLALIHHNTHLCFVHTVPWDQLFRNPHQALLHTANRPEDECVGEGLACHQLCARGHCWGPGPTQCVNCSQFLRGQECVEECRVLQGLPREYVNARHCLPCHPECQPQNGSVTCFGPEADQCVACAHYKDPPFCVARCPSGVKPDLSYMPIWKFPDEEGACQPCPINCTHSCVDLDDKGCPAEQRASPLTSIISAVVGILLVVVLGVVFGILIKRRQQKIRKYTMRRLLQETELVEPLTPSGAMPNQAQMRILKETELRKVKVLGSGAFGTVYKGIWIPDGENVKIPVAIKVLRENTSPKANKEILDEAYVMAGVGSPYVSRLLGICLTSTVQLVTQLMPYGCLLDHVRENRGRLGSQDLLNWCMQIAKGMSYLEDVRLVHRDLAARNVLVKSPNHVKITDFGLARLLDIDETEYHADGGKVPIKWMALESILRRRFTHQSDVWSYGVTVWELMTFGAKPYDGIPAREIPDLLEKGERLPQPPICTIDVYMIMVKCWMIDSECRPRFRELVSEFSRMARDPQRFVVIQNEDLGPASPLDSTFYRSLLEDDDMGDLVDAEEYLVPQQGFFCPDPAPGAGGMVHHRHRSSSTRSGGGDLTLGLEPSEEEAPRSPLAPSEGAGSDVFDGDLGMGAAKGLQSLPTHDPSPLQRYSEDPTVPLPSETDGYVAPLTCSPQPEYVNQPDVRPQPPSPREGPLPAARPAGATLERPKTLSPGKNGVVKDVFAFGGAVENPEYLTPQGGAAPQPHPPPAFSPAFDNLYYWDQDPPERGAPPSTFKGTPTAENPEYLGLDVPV
VEGFR-2, sequence (P35968 20-1356): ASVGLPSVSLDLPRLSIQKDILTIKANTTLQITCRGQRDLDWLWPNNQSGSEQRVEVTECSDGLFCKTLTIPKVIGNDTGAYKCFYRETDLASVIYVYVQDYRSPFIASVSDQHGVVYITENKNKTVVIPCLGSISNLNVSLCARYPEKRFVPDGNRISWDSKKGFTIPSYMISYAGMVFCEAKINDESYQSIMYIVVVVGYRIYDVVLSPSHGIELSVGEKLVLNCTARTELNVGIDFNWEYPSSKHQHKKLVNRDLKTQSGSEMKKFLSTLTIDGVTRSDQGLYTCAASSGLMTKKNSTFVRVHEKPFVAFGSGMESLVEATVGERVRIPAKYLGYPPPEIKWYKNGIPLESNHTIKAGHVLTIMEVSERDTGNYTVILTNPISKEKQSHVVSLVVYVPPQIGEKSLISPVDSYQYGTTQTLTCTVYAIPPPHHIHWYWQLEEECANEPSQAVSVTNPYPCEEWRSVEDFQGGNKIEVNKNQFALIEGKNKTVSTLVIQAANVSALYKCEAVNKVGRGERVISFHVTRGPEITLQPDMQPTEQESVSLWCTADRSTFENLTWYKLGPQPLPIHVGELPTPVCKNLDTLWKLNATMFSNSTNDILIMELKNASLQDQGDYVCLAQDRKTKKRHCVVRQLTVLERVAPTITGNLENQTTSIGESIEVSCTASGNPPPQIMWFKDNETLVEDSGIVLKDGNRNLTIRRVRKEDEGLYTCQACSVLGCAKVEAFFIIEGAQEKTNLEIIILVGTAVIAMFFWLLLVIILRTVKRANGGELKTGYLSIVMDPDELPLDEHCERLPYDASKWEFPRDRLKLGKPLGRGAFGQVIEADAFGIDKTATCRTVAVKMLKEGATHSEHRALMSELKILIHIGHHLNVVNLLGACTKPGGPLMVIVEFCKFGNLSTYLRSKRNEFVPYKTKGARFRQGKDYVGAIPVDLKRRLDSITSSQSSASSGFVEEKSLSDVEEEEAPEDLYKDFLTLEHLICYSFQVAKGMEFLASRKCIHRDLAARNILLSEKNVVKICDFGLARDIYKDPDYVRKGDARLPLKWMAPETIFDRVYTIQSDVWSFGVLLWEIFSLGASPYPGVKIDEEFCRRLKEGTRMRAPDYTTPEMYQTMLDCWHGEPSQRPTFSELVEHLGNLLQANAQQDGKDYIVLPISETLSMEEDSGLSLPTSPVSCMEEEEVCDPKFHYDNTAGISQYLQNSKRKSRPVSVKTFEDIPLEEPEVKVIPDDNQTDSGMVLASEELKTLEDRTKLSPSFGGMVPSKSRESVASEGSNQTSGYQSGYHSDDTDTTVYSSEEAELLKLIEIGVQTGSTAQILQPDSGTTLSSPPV

With `O=C(/C=C/c1ccc(O)cc1)c1ccccc1` [Compound 4b, (E)-3-(4-Hydroxyphenyl)-1-phenylprop-2-en-1-one] the “Inhibition (%) VEGFR2” value (VEGFR-2; 0.01 µM) was 19.2% and 19.7%, the “Inhibition (%) VEGFR2” value (VEGFR-2; 0.1 µM) was 48.2% and 48.6% and the “Inhibition (%) VEGFR2” value (VEGFR-2; 1 µM) was 73.4%. The “Inhibition (%) VEGFR2” value (VEGFR-2; 10 µM) was 89% and 90%, the “Inhibition (%) VEGFR2” value (VEGFR-2; 100 µM) was 95.9% and the inhibition at 0.01 µM (VEGFR-2; read-out: Inhibition (%) VEGFR2, 0.01 µM) was 19.4%. For the same compound, the inhibition at 0.1 µM (VEGFR-2; read-out: Inhibition (%) VEGFR2, 0.1 µM) was 48.3%, the inhibition at 1 µM (VEGFR-2; read-out: Inhibition (%) VEGFR2, 1 µM) was 73.8% and the inhibition at 10 µM (VEGFR-2; read-out: Inhibition (%) VEGFR2, 10 µM) was 89.5%. The inhibition at 100 µM (VEGFR-2; read-out: Inhibition (%) VEGFR2, 100 µM) was 96.1%, the IC50 (CDK2) was 0.288 ± 0.009 µM and the “Inhibition (%) CDK2” value (CDK2; 0.01 µM, individual Data 1-3) was 18.7% and 19.5%. For the same compound, the “Inhibition (%) CDK2” value (CDK2; 0.1 µM, individual Data 1-3) was 38.2% and 39.3%, the “Inhibition (%) CDK2” value (CDK2; 1 µM, individual Data 1-3) was 66.1% and 65.3% and the “Inhibition (%) CDK2” value (CDK2; 10 µM, individual Data 1-3) was 84.9% and 86%. The “Inhibition (%) CDK2” value (CDK2; 100 µM, individual Data 1-3) was 94.8%, the inhibition at 100 µM (CDK2; read-out: Inhibition (%) CDK2) was 93.8% and the inhibition at 0.01 µM (CDK2; read-out: Inhibition (%) CDK2, 0.01 µM, individual Data 1-3) was 19.1%. For the same compound, the inhibition at 0.1 µM (CDK2; read-out: Inhibition (%) CDK2, 0.1 µM, individual Data 1-3) was 38.5%, the inhibition at 1 µM (CDK2; read-out: Inhibition (%) CDK2, 1 µM, individual Data 1-3) was 66.9% and the inhibition at 10 µM (CDK2; read-out: Inhibition (%) CDK2, 10 µM, individual Data 1-3) was 85.4%. For the same compound, the inhibition at 100 µM (CDK2; read-out: Inhibition (%) CDK2, 100 µM, individual Data 1-3) was 94.1%, the IC50 (HER2) was 0.387 ± 0.015 µM and the “Inhibition (%) Her2” value (HER2; 0.01 µM, individual Data 1-3) was 8.76% and 10.34%. For the same compound, the “Inhibition (%) Her2” value (HER2; 0.1 µM, individual Data 1-3) was 36.2% and 38.76%, the “Inhibition (%) Her2” value (HER2; 1 µM, individual Data 1-3) was 71.3% and 70.87% and the “Inhibition (%) Her2” value (HER2; 10 µM, individual Data 1-3) was 80.35% and 82.9%. The “Inhibition (%) Her2” value (HER2; 100 µM, individual Data 1-3) was 93% and 95.67%, the inhibition at 0.01 µM (HER2; read-out: Inhibition (%) Her2, 0.01 µM, individual Data 1-3) was 9.25% and the inhibition at 0.1 µM (HER2; read-out: Inhibition (%) Her2, 0.1 µM, individual Data 1-3) was 37.7%. The inhibition at 1 µM (HER2; read-out: Inhibition (%) Her2, 1 µM, individual Data 1-3) was 73%, the inhibition at 10 µM (HER2; read-out: Inhibition (%) Her2, 10 µM, individual Data 1-3) was 81.6% and the inhibition at 100 µM (HER2; read-out: Inhibition (%) Her2, 100 µM, individual Data 1-3) was 94.2%. For the same compound, the “Cell Proliferation MCF-7 %” value (MCF-7 [1]; [6]) was 34%, the “Cell Proliferation MCF-7 Cell Count” value (MCF-7 [1]; mean ± SD of triplicate) was 6213 ± 221 and the “Reduction of growth/cell count (inhibition) in MCF-7” value (MCF-7 [1]; relative to control) was 66%. The “Inhibition (%) Aromatase” value ([2]; 0.01 µM) was 5.7% and 3.5% and 7.9%, the “Inhibition (%) Aromatase” value ([2]; 0.1 µM) was 9.9% and 14.2% and the “Inhibition (%) Aromatase” value ([2]; 1 µM) was 44% and 41.7%. The “Inhibition (%) Aromatase” value ([2]; 10 µM) was 72.5% and 78.6%, the “Inhibition (%) Aromatase” value ([2]; 100 µM) was 87% and 93.8% and the inhibition at 0.1 µM ([2]; read-out: Inhibition (%) Aromatase, 0.1 µM) was 11%. For the same compound, the inhibition at 1 µM ([2]; read-out: Inhibition (%) Aromatase, 1 µM) was 47.8%, the inhibition at 10 µM ([2]; read-out: Inhibition (%) Aromatase, 10 µM) was 75% and the inhibition at 100 µM ([2]; read-out: Inhibition (%) Aromatase, 100 µM) was 89%. For the same compound, the IC50 (HeLa) was 13.1 ± 1.1 µM, the IC50 ([3]; HCT-116, MDA-MB-231, HeLa, MCF-7, range, read-out: IC50 values, range over the cancer cell lines tested) was 2.08 to 34.9 µM and the IC50 ([3]; HCT-116 and HeLa, range over the compounds named, read-out: IC50 values, range against HCT-116 and HeLa) was 6.59 to 22.6 µM. The IC50 ([3]; MDA-MB-231 and MCF-7, range over the compounds named, read-out: IC50 values, range against MDA-MB-231 and MCF-7) was 2.08 to 13.6 µM, the IC50 (HCT-116) was 6.59 ± 0.3 µM and the “Cell Proliferation MCF-7a %” value (MCF-7a; [6]) was 99%. For the same compound, the “Cell Proliferation MCF-7a Cell Count” value (MCF-7a; mean ± SD of triplicate) was 20,669 ± 597, the IC50 (MDA-MB-231) was 4.93 ± 0.3 µM and the IC50 at 24 h [4] was 54.6 ± 3.1 µM. For the same compound, the IC50 (MCF-7 [5]) was 2.08 ± 0.1 µM.
